Data on 16 molecules can be found in ChEMBL document CHEMBL2086310, “Alkaloids from Pachysandra terminalis inhibit breast cancer invasion and have potential for development as antimetastasis therapeutic agents” (J Nat Prod, 2012).

SMILES strings stand for the structures. Active and inactive are the calls of the source. The rule behind the calls is not given here.

Sequence of Integrin beta-1 (Homo sapiens) (P05556 whole entry): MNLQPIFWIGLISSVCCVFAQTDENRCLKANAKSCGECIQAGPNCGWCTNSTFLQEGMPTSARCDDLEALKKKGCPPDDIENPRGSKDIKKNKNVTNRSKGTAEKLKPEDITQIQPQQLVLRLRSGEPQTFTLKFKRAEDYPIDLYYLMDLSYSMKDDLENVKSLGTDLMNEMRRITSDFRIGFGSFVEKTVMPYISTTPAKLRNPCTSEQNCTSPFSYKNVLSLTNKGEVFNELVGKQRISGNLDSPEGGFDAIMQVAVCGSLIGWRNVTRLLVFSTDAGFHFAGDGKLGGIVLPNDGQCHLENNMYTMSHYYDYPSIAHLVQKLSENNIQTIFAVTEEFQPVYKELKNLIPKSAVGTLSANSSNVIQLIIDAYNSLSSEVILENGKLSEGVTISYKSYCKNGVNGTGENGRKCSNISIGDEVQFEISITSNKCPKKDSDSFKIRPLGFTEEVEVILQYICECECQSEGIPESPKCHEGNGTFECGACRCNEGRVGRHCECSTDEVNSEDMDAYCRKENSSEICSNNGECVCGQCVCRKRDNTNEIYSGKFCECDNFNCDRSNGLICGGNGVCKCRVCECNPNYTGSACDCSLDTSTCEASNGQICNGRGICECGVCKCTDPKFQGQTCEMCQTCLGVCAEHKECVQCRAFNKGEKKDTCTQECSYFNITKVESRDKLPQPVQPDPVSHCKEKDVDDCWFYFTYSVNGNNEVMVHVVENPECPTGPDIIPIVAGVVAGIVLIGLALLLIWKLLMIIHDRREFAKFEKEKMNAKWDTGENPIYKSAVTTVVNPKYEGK

In one test the test system is MDA-MB-231. In words: Inhibition of epithelial growth factor-induced cell migration of human MDA-MB-231 cells at 10 uM pre-incubated for 24 hrs by cell invasion assay. In kind it is functional, cell-based.
For the molecule `CC(=O)[C@H]1CC[C@H]2[C@@H]3CC[C@H]4C[C@]5(CC[C@]4(C)[C@H]3CC[C@]12C)c1ccccc1C(=O)N5C`, the inhibition entry is “inactive”.
The same measure, in the same setting: to `CC(=O)[C@H]1CC[C@H]2[C@@H]3CC[C@H]4C[C@H](N(C)C(=O)c5ccccc5)CC[C@]4(C)[C@H]3CC[C@]12C` belongs “inactive”; to `CC(=O)[C@H]1CC[C@H]2[C@@H]3CC[C@H]4C[C@H](N(C)C(=O)C=C(C)C)CC[C@]4(C)[C@H]3CC[C@]12C`, “inactive”.

The next test has as its target Integrin beta-1 (Homo sapiens) (UniProt P05556). Kind of test: Inhibition of integrin beta1 phosphorylation in human […] cells at 1 to 10 uM incubated for 24 hrs by Western blot. It counts as cell-based. For orientation: In western blotting, separated proteins are transferred to a membrane and probed.
On to `CC(C)[C@H]1CN([C@H]2CC[C@@]3(C)[C@@H](CC[C@@H]4[C@@H]3CC[C@]3(C)[C@@H]([C@H](C)N(C)C)[C@@H](O)C[C@@H]43)C2=O)C1=O` [TERMINAMINE A], for which the inhibition entry was “Dose-dependent effect”.

The test system of a further test is MDA-MB-231. In words: Inhibition of epithelial growth factor-induced cell migration of human MDA-MB-231 cells pre-incubated for 24 hrs by cell invasion assay. In kind it is functional, cell-based.
A word on the IC50: it is the midpoint of a concentration-inhibition curve. Read a high IC50 as weaker potency. Molecule `CC(C)[C@H]1CN([C@H]2CC[C@@]3(C)[C@@H](CC[C@@H]4[C@@H]3CC[C@]3(C)[C@@H]([C@H](C)N(C)C)[C@@H](O)C[C@@H]43)C2=O)C1=O` [TERMINAMINE A] gave an IC50 of 180 nM.
Still for that read-out and setting: to `C[C@@H]([C@H]1CC[C@H]2[C@@H]3CC[C@H]4C[C@@H](NC(=O)c5cccnc5)CC[C@]4(C)[C@H]3CC[C@]12C)N(C)C` [EPIPACHYSAMINE B] belongs 350 nM.
The same measure, in the same setting: to `CC(C)=C1CN([C@@H]2CC[C@@]3(C)[C@@H](CC[C@@H]4[C@@H]3CC[C@]3(C)[C@@H]([C@H](C)N(C)C)CC[C@@H]43)[C@H]2O)C1=O` [TERMINAMINE E] belongs 70 nM.
Still for that read-out and setting: to `C/C=C1\C(=O)C[C@H]2[C@@H]3CC[C@H]4C[C@@H](N(C)C)CC[C@]4(C)[C@H]3CC[C@]12C` [Z-salignone] belongs 1740 nM; to `C/C=C1/C(=O)C[C@H]2[C@@H]3CC[C@H]4C[C@@H](N(C)C)CC[C@]4(C)[C@H]3CC[C@]12C`, 870 nM; to `CC(C)[C@@H]1CN([C@H]2CC[C@@]3(C)[C@@H](CC[C@@H]4[C@@H]3CC[C@]3(C)[C@@H]([C@H](C)N(C)C)CC[C@@H]43)C2=O)C1=O` [PACHYSTERMINE A], 320 nM.
`CC(=O)O[C@@H]1C[C@]2(C)[C@@H]([C@H](C)N(C)C)[C@@H](O)C[C@H]2[C@@H]2CC[C@H]3[C@@H](O)[C@@H](N4C[C@H](C(C)C)C4=O)C[C@@H](OC(C)=O)[C@]3(C)[C@H]21` [TERMINAMINE B] came in with an IC50 of 200 nM.
In the case of `CC(C)=CC(=O)N[C@H]1CC[C@@]2(C)[C@@H](CC[C@@H]3[C@@H]2CC[C@]2(C)[C@@H]([C@H](C)N(C)C)CC[C@@H]32)C1` [EPIPACHYSAMINE E], the IC50 was 410 nM.
Still for that read-out and setting: to `CC(=O)O[C@@H]1C[C@H](N2C[C@H](C(C)C)C2=O)[C@H](O)[C@@H]2CC[C@@H]3[C@H]([C@H](OC(=O)CC(C)C)C[C@]4(C)[C@@H]([C@H](C)N(C)C)[C@@H](O)C[C@@H]34)[C@@]12C` [TERMINAMINE C] belongs 80 nM; to `CC(C)=C1CN([C@@H]2CC[C@@]3(C)[C@@H](CC[C@@H]4[C@@H]3CC[C@]3(C)[C@@H]([C@H](C)N(C)C)[C@@H](O)C[C@@H]43)[C@H]2O)C1=O` [TERMINAMINE D], 200 nM; to `CC(C)[C@@H]1CN([C@H]2CC[C@@]3(C)[C@@H](CC[C@@H]4[C@@H]3CC[C@]3(C)[C@@H]([C@H](C)N(C)C)CC[C@@H]43)[C@H]2O)C1=O` [PACHYSTERMINE B], 190 nM.
On the same count and under the same terms, to `O=c1cc(N2CCOCC2)oc2c(-c3ccccc3)cccc12` [LY-294002] belongs 380 nM; to `C[C@@H]([C@H]1CC[C@H]2[C@@H]3CC[C@H]4[C@H](O)[C@@H](O)CC[C@]4(C)[C@H]3CC[C@]12C)N(C)C` [TERMINALINE], 360 nM.
